We go through 4 compounds from BindingDB's records for doi:10.1158/1535-7163.MCT-07-0187 (Burnham Institute For Medical Research, 2007).

The experiment deals with T1, Fatty acid synthase [2202-2509] (Homo sapiens, UniProt P49327).
T1 construct: 2202-2509
T1 sequence (P49327 2202-2509): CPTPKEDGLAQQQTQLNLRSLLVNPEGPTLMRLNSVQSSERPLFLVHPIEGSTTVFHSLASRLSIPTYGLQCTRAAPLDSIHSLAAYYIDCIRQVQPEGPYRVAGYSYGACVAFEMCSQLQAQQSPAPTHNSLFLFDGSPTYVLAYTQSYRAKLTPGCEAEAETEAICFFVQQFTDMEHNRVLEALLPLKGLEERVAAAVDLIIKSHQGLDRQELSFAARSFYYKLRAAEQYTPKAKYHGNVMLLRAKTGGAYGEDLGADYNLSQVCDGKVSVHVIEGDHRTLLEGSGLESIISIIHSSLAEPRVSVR
The experiment in a line: Fluorogenic Assay for Detection of FASTE Inhibition. As to conditions: pH 7.5; 37 °C.
Method: The reaction mixture consisted of FAS thioesterase domain (FASTE) in buffer, which was preincubated with test compounds for 30 min. The reaction was initiated by addition of substrate 4-MUH. […] The inhibition constants (Ki) were calculated using the equation of Cheng and Prusoff.
In turn, `Cc1cc(C)cc(N2C(=O)NC(=O)C(=Cc3ccc(-c4ccccc4)o3)C2=O)c1` [(5E)-1-(3,5-dimethylphenyl)-5-[(5-phenylfuran-2-yl)methylidene]-1,3-diazinane-2,4,6-trione] returned a Ki of 0.38 µM. This counts as sub-micromolar.
Compound `O=C1NC(=O)N(c2cccc(Br)c2)C(=O)C1=Cc1ccc(-c2ccccc2[N+](=O)[O-])o1` [(5E)-1-(3-bromophenyl)-5-{[5-(2-nitrophenyl)furan-2-yl]methylidene}-1,3-diazinane-2,4,6-trione] returned a Ki of 0.88 µM.
In turn, `O=C1NC(=O)N(Cc2ccccc2)C(=O)/C1=C/c1ccc(-c2ccccc2Cl)o1` [(5E)-1-benzyl-5-{[5-(2-chlorophenyl)furan-2-yl]methylidene}-1,3-diazinane-2,4,6-trione] registered a Ki of 0.85 µM.
Consider `Cc1ccccc1N1C(=O)NC(=O)C(=Cc2ccc(-c3ccc(F)cc3)o2)C1=O` [(5E)-5-{[5-(4-fluorophenyl)furan-2-yl]methylidene}-1-(2-methylphenyl)-1,3-diazinane-2,4,6-trione], for which the inhibition constant (Ki) was determined as 0.91 µM.
